{
  "source": "patent US20120301468A1",
  "about": "“ANTI-MN ANTIBODIES AND METHODS OF USING SAME” (BAYER HEALTHCARE LLC, priority 2005, published 2012)",
  "key": {"[1]": {"system": "HCT-15 multi-drug resistant (P-gp) CRC xenograft", "assay": "HCT-15 multi-drug resistant xenograft model", "type": "in vivo, NCr nu/nu mice", "conditions": "HCT-15 MDR model", "method": "To examine the effect of 3ee9/MMAE in a multi-drug resistance model, female NCr nu/nu mice were implanted subcutaneously (s.c.) with 5×10^6 HCT-15 cells. HCT-15 is a multi-drug resistant (MDR) line that over-expresses P-glycoprotein (P-gp). […] 3ee9/MMAE, Taxol, and Gemcitabine were administered when mice had established tumors with mean weight of ˜150 mg. Gemcitabine, a pyrimidine analog that is not a P-gp substrate was used as a positive control."}, "[2]": {"system": "HT-29 human CRC xenograft", "assay": "HT-29 subcutaneous xenograft model", "type": "in vivo, athymic NCr (nu/nu) mice", "conditions": "HT-29; for % Inhibition (1-T/D)*100 (Day 18) / Percent Regressions: Q4D × 3", "method": "When tumors reached an average size of ˜120 mg (5 days), treatment was initiated. […] In addition, MMAE was assessed as a free drug at a dose of 0.1, 0.2 and 1 mg/kg. The 0.1 and 0.2 mg/Kg doses of MMAE represent equivalent amounts of this drug to those present on 5 and 10 mg/Kg 3ee9/MMAE respectively.\nAnti-tumor effect of 3ee9/MMAE was also assessed in varying schedules, i.e., once a week dosing for total of two doses (Q7Dx2, FIG. 20) and a single dose at the time of staging (Q1Dx1, FIG. 21). In both schedules, 3ee9/MMAE was dosed at 0.625, 1.25, 2.5, 5 and 10 mg/kg."}, "Colo-205 CRC xenograft": {"system": "Colo-205 CRC xenograft", "assay": "Colo-205 subcutaneous xenograft model", "conditions": "Colo-205", "text": "The in vivo anti-tumor effect of 3ee9/MMAE was examined in 6 different human xenograft tumor models. These models were established through subcutaneous implantation of human tumor cells into female athymic NCr (nu/nu) mice (Taconic, N.Y.). The human tumor xenograft models evaluated included the MaTu human mammary carcinoma model, the HT-29 and Colo-205 human colo-rectal carcinoma (CRC) models, PC3MM2 prostate carcinoma model, the HCT-15 multi-drug resistant (P-gp) CRC model, and the MiaPaCa2 human pancreatic model. PBS was used as a vehicle, and dosing solutions were prepared fresh daily. The dosing volume was 0.1 mL/10 g (10 mL/kg).\nThe length and width of each tumor were measured using an electronic caliper 2-3 times per week, and tumor weights (mg) were calculated based on the formula of [length (mm)×width (mm)^2]/2. All data, including daily observations, obtained throughout the course of the study were documented in Anti-tumor Data Acquisition System (ADAS). […] Tumor growth inhibition (TGI) was calculated as (1-T/C)×100, where T=final tumor weights from a treated group after the last dose, and C=final tumor weights from the control group after the last dose. In addition, anti-tumor efficacy was measured as the incidence of responses (or responders or regressions) defined as tumors with ≦50% of their initial size. A minimum duration of 7 days is required for a response to be considered durable.\nThe anti-tumor activity of 3ee9/MMAE was next evaluated against human prostate (PC-3 mm2) and CRC (Colo-205) tumor xenografts. Female NCr nu/nu mice were implanted subcutaneously (s.c.) either with 5×10^6 PC3 mm2 or Colo-205 cells. Treatment was initiated when tumors were of an average size of approximately 125-150 mg. The general health of mice was monitored and recorded daily. Tumor dimensions and body weights were recorded twice a week starting with the first day of treatment.\nIn the PC3 mm2 and Colo-205 studies, 3ee9/MMAE was administered intravenously (i.v.) once every 4th day for a total of 3 injections (Q4Dx3) at doses of 1, 3, 10 and 30 mg/kg and 1.25, 2.5, 5 and 10 mg/kg, respectively.\nThe feasibility of using 3ee9/MMAE in conjunction with other cancer chemotherapeutic agents was investigated. Xeloda® is used as first line treatment of patients with metastatic colorectal carcinoma. The activity and tolerability of combined therapy using 3ee9/MMAE and Xeloda® was evaluated. 3ee9/MMAE was administered i.v. on a Q4Dx3 schedule and at dose levels of 1.25, 2.5 and 10 mg/kg. Xeloda® was administered orally once daily for 9 days at dose levels of 250 and 500 mg/kg."}, "MN [3]": {"biological_target": "T1, MN (Homo sapiens, UniProt Q16790)", "assay": "Surface plasmon resonance (BIAcore) binding to MN protein", "design": "The MN protein represents the entire extra-cellular domain of the protein with a C-terminal histag for purification; His tag (C); made in house; host or cells: HKB-11 (mammalian cell line)", "conditions": "read-out: kD for purified MN protein", "method": "The binding interactions between MN protein and the antibodies of this invention were analyzed using surface plasmon resonance technology on a BIAcore 3000 instrument (BIAcore, Uppsala, Sweden). For the binding of full-length IgGs (1e4, 1aa1, and 3ee9), goat anti-human IgG Fc was covalently coupled to the CM5 biosensor chip at high density using a standard amine coupling kit (BIAcore, Uppsala, Sweden). A capture assay was then used to bind these IgG to the anti-human IgG Fc-immobilized surface, aiming for a 300 response unit BIAcore signal. […] After ligand binding, the flow rate was then increased to 25 μl/min and various concentrations of MN analyte (e.g., range of 50 nM to 1 nM) were flowed over the surface for 10 minutes such that the association phase could be monitored. […] The binding of Fabs to MN was similarly determined except that an anti-human-Fab IgG was immobilized onto the chip and used to capture the Fabs prior to the assessment of MN binding.\nBinding interactions between HKB11-expressed human MN protein and human full-length anti-MN MAbs were analyzed using surface plasmon resonance technology on a BIAcore 3000 instrument (BIAcore, Uppsala, Sweden). […] After ligand binding, flow rate was increased to 25 ul/min and MN analyte (50 nM to 1 nM) was flowed over the surface for 10 min such that the association phase could be monitored. […]"}, "MN [4]": {"biological_target": "T1, MN", "assay": "Immunoprecipitation of biotinylated cell surface proteins", "type": "binding", "design": "incubated with cell lysates of MN+ (Pc3 mm2) and MN− (DLD-1) cell lines that had been selectively labeled with biotin; endogenous in cells; host or cells: PC-3 mm2 (MN+); DLD-1 as the MN- control", "conditions": "biotin-labeled lysates of MN+ (Pc3 mm2) and MN− (DLD-1) cell lines", "method": "To further explore specificity, various candidate antibodies including the antibody portion of 3ee9/MMAE (3ee9) and the reference antibody G250 were incubated with cell lysates of MN+ (Pc3 mm2) and MN− (DLD-1) cell lines that had been selectively labeled with biotin. Complexes between the antibodies and cellular proteins were immuno-precipitated and the co-precipitated antigens visualized using immunoblots developed with enzyme-linked streptavidin."}},
  "note": "Non-standard residues stand in square brackets, D forms with d. Residues, ends and D or L forms follow the SMILES beside them. *: point of attachment. Dolaproine = CO[C@@H]([C@@H]1CCCN1)[C@@H](C)C(=O)O; Dil = CC[C@H](C)[C@H](NC)[C@@H](CC(=O)O)OC; X1 = C[C@@H](N*)[C@@H](O)c1ccccc1; NMeV = CN[C@H](C(=O)O)C(C)C",
  "data": [
    {"molecule": "Nc1ccn([C@@H]2O[C@H](CO)[C@@H](O)C2(F)F)c(=O)n1", "note": "[Gemcitabine]", "values": [
      {"measurement": "anti-tumor activity", "setting": "[1]; 120 mg/kg, i.p., QDx10", "value": "highly active"}
    ]},
    {"molecule": "CC[C@H](C)[C@@H]([C@@H](CC(=O)N1CCC[C@H]1[C@H](OC)[C@@H](C)C(=O)N[C@H](C)[C@@H](O)c1ccccc1)OC)N(C)C(=O)[C@@H](NC(=O)[C@@H](NC)C(C)C)C(C)C", "note": "[MMAE, Monomethylauristatin E, reference compound] (H-[NMeV]V[Dil][Dolaproine]-X1)", "values": [
      {"measurement": "% Inhibition (1-T/D)*100 (Day 18)", "setting": "[2]; 0.1 mg/kg", "value": 27, "unit": "%"},
      {"measurement": "Percent Regressions", "setting": "[2]; 0.1 mg/kg", "value": 0, "unit": "%"},
      {"measurement": "% Inhibition (1-T/D)*100 (Day 18)", "setting": "[2]; 0.2 mg/kg", "value": 60, "unit": "%"},
      {"measurement": "Percent Regressions", "setting": "[2]; 0.2 mg/kg", "value": 0, "unit": "%"},
      {"measurement": "% Inhibition (1-T/D)*100 (Day 18)", "setting": "[2]; 1 mg/kg", "value": "Toxic"},
      {"measurement": "tumor responses", "setting": "[2]; free drug", "value": "did not induce any tumor responses"},
      {"measurement": "effect in inhibiting growth", "setting": "[2]; free drug 0.1 mg/kg", "value": "no significant effect"},
      {"measurement": "TGI", "setting": "[2]; free drug 0.2 mg/kg", "value": 60, "unit": "%"},
      {"measurement": "lethality", "setting": "[2]; free drug 1 mg/kg", "value": 50, "unit": "%"},
      {"measurement": "tolerability", "setting": "[2]; free drug 1 mg/kg", "value": "considered toxic"},
      {"measurement": "tolerability", "setting": "[2]; free drug 0.1 and 0.2 mg/kg", "value": "well tolerated with non-significant, minimal weight loss"}
    ]},
    {"molecule": "CC(=O)O[C@H]1C(=O)[C@@]2(C)[C@H]([C@H](OC(=O)c3ccccc3)[C@]3(O)C[C@H](OC(=O)[C@H](O)[C@@H](NC(=O)c4ccccc4)c4ccccc4)C(C)=C1C3(C)C)[C@]1(OC(C)=O)CO[C@@H]1C[C@@H]2O", "note": "[Taxol®]", "values": [
      {"measurement": "anti-tumor effect", "setting": "[1]", "value": "failed to produce any significant anti-tumor effect"}
    ]},
    {"molecule": "CCCCCOC(=O)Nc1nc(=O)n([C@@H]2O[C@H](C)[C@@H](O)[C@H]2O)cc1F", "note": "[Xeloda, reference compound]", "values": [
      {"measurement": "% Inhibition (T/C) (d 17)", "setting": "Colo-205 CRC xenograft; 250 mg/kg/inj Q1D × 9 PO", "value": 78, "unit": "%"},
      {"measurement": "% Regressions", "setting": "Colo-205 CRC xenograft; 250 mg/kg/inj Q1D × 9 PO", "value": 0, "unit": "%"},
      {"measurement": "% Weight Loss (d 17)", "setting": "Colo-205 CRC xenograft; 250 mg/kg/inj Q1D × 9 PO", "value": "−0.5", "unit": "%"},
      {"measurement": "% Inhibition (T/C) (d 17)", "setting": "Colo-205 CRC xenograft; 500 mg/kg/inj Q1D × 9 PO", "value": 86.1, "unit": "%"},
      {"measurement": "% Regressions", "setting": "Colo-205 CRC xenograft; 500 mg/kg/inj Q1D × 9 PO", "value": 0, "unit": "%"},
      {"measurement": "% Weight Loss (d 17)", "setting": "Colo-205 CRC xenograft; 500 mg/kg/inj Q1D × 9 PO", "value": "−5.6", "unit": "%"},
      {"measurement": "TGI", "setting": "Colo-205 CRC xenograft; alone 250 mg/kg orally once daily for 9 days", "value": 78, "unit": "%"},
      {"measurement": "TGI", "setting": "Colo-205 CRC xenograft; alone 500 mg/kg orally once daily for 9 days", "value": 86, "unit": "%"},
      {"measurement": "animals showing regressions", "setting": "Colo-205 CRC xenograft; both dose groups (250 and 500 mg/kg)", "value": "zero"}
    ]},
    {"molecule": "G250: MN antibody G250, a humanized IgG1 antibody, (Wilex), used as a reference [reference compound]", "values": [
      {"measurement": "Kd", "setting": "MN [3]", "value": 5.3, "unit": "nM"},
      {"measurement": "co-immunoprecipitated proteins (specificity)", "setting": "MN [4]", "value": "selectively bound and co-immunoprecipitated with a single band of the same size as MN"}
    ]}
  ]
}
